Values quoted from earlier work, collected in patent publication US20130316010A1, “POLYMERIC MICROPARTICLES” (Case Western Reserve University, priority 2010, published 2013).

System: EGFR
Details: rodent glaucomatous optic neuropathy model and optic nerve crush model

AG1478
EGFR upregulation and activation of astrocytes: reverses this upregulation and activation of astrocytes
survival of RGCs: increases the survival of RGCs
